Test results: patent US20030195376A1, “Novel intermediate and processes for its preparation and conversion into a pharmacologically-active agent” (priority 2002, published 2003)

Assays:
[1] = in vivo; cited from earlier work
[2] = system: neuronal uptake of dopamine; conditions: relative to serotonin-norepinephrine uptake; cited from earlier work
[3] = Solubility in solvents (product characteristics); format: physicochemical; conditions: in methanol
[4] = ethanol, chloroform, dichloromethane, acetone, ethyl acetate, benzene, toluene and isopropyl alcohol

For `COc1ccc(C(CN(C)C)C2(O)CCCCC2)cc1` (racemic) [formula (IX), (±)-1-[2-dimethylamino-1-(4-methoxy-phenyl)-ethyl]-cyclohexanol], the “effectiveness compared with standard antidepressants such as imipramine” value [1] is listed as “as effective as” and the “inhibition of neuronal uptake of dopamine” value [2] is listed as “to a lesser extent”.

For `COc1ccc(C2(C#N)OC23CCCCC3)cc1` (stereo not shown) [formula (I), 2-(4-methoxy-phenyl)-1-oxa-spiro[2.5]octane-2-carbonitrile], the Solubility [3, 4] was “Soluble in methanol, ethanol, chloroform, dichloromethane,”.

With `COc1ccc(C(=O)C2(Br)CCCCC2)cc1` [formula (II), (1-bromo-cyclohexyl)-(4-methoxy-phenyl)-methanone] the Solubility [3, 4] was “Soluble in methanol, ethanol, chloroform, dichloromethane,”.

With `COc1ccc(C(=O)C2CCCCC2)cc1` [formula (III), cyclohexyl-(4-methoxy-phenyl)-methanone] the Solubility [3, 4] was “Soluble in Methanol, ethanol, chloroform, dichloromethane,”.

For `COc1ccc(C(O)C2CCCCC2)cc1` (stereo not shown) [formula (V), cyclohexyl-(4-methoxy-phenyl)-methanol], the Solubility ([3]; ethanol, chloroform, dichloromethane, acetone, ethyl acetate etc.) was “Soluble in methanol, ethanol, chloroform,”.

In the case of `COc1ccc(C(CN)C2(O)CCCCC2)cc1` (stereo not shown) [formula (X), 1-[2-amino-1-(4-methoxy-phenyl)-ethyl]-cyclohexanol], the Solubility ([3]; chloroform and water) is reported as “Soluble in methanol, chloroform and water”.
